# Where two headings read alike, the source gives them in different places.
# Columns and labels:
# [1] = test system: Ad2 variant pre-mRNAs spliced in HeLa S3 nuclear extracts; test: In vitro splicing assay (IVS), RT-qPCR of spliced product; type: biochemical; conditions: geometric mean
# Summary of the method: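 Read-out is one-step TaqMan RT-qPCR of spliced Ad2 mRNA with Ftz as reference, normalized to DMSO and fit by non-linear regression. Reactions held HeLa S3 nuclear extract, 2 ng Ad2-derived pre-mRNA and test compound, with 15 min preincubation. Splicing was started with ATP-containing activation buffer and run 90 min at 30 °C.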
# SF3b complexes = molecular target: T1, SF3b complexes (Homo sapiens, UniProt O75533+Q7RTV0); test: Scintillation proximity assay (SPA) with [3H]-labelled pladienolide probe; type: binding; conditions: SF3B1 (WT); geometric mean; read-out: SPA-ATS GMean IC50 (nM) SF3B1 (WT)
# T1 construct: endogenous in cells; host or cells: Nuclear extracts; A HeLa S3 extract preparation is described for the in vitro splicing assay
# Summary of the method: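 SF3b complexes captured from nuclear extracts on anti-SF3B1 antibody SPA beads; test compounds pre-incubated 30 min before 2.5 nM [3H]-pladienolide probe added, then 30 min incubation. Bound probe read by scintillation; values from non-linear regression of concentration–response curves.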
# [2] = test system: Panc 05.04 cells (SF3b K700E mutant); test: Cell proliferation and viability, CellTiter-Glo, 72 hours; type: cell-based; conditions: for CTGlo-ATS Mean MinResponse % 72 h PANC0504.1: −100% cidal, 0% static, 100% maximal growth; for GI50: geometric mean
# Summary of the method: (§1)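 ATP luminescence (CellTiter-Glo) was measured 72 h after treatment with compound at 10 μM–100 pM (11 points, half-log) in 0.1% DMSO. The Panc line was grown in RPMI-1640 plus insulin and 15% FBS, the other in 10% FBS. Data were normalised to time zero and vehicle controls, where −100% is cidal and 0% static.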
# [3] = test system: NCI-H1568 cells (high MCL1); test: as above; type: cell-based; conditions: for GI50: geometric mean; for CTGlo-ATS Mean MinResponse % 72 h NCIH1568.1: −100% cidal, 0% static, 100% maximal growth
# Summary of the method: as §1
# [4] = Ad2.1 pre-mRNA substrate, read-out: qPCR-IVS-ATS GMean IC50 (nM) Ad2.1
# [5] = Ad2.2 pre-mRNA substrate, read-out: qPCR-IVS-ATS GMean IC50 (nM) Ad2.2
# [6] = Panc 05.04, read-out: CTGlo-ATS GMean GI50 (nM) 72 h PANC0504.1, PANC0504.1 cells, 72 h
# [7] = NCI-H1568, read-out: CTGlo-ATS GMean GI50 (nM) 72 h NCIH1568.1, NCIH1568.1 cells, 72 h
# [8] = Panc 05.04, 72 h, read-out: CTGlo-ATS GMean GI50 (nM) 72 h PANC0504.1, PANC0504.1 cells, 72 h
# [9] = NCI-H1568, 72 h, read-out: CTGlo-ATS GMean GI50 (nM) 72 h NCIH1568.1, NCIH1568.1 cells, 72 h
Structure (SMILES),"IC50 [1, 4]","IC50 [1, 5]",IC50 (SF3b complexes),"CTGlo-ATS Mean MinResponse % 72 h PANC0504.1 ([2]; PANC0504.1 cells, 72 h)","GI50 [2, 6]","GI50 [3, 7]","CTGlo-ATS Mean MinResponse % 72 h NCIH1568.1 ([3]; NCIH1568.1 cells, 72 h)","GI50 [2, 8]","GI50 [3, 9]"
C/C(=C\c1ccc2c(F)nn(CC3CC3)c2c1)[C@H]1OC(=O)C[C@H](O)CC[C@H](C)[C@@H](OC(=O)N2CCN(C)CC2)/C=C/[C@@H]1C [Compound 133],1670 nM,92.5 nM,6.99 nM,−94.957%,25.6 nM,17.7 nM,−69.167%,,
COCCC(=O)N1CCN(c2cc(F)cc(/C=C(\C)[C@H]3OC(=O)C[C@H](O)CC[C@H](C)[C@@H](OC(=O)N4CCN(C)CC4)/C=C/[C@@H]3C)c2)CC1 [Compound 134],26.5 nM,13.3 nM,2.06 nM,−92.570%,4.11 nM,3.92 nM,−79.743%,,
C/C(=C\c1cc(F)cc(N2CCN(C(=O)CO)CC2)c1)[C@H]1OC(=O)C[C@H](O)CC[C@H](C)[C@@H](OC(=O)N2CCN(C)CC2)/C=C/[C@@H]1C [Compound 135],14.9 nM,14.9 nM,3.67 nM,−90.575%,2.46 nM,2.41 nM,−84.225%,,
C/C(=C\c1cc(F)c2nnn(CC3CC3)c2c1)[C@H]1OC(=O)C[C@H](O)CC[C@H](C)[C@@H](OC(=O)N2CCN(C)CC2)/C=C/[C@@H]1C [Compound 137],27.6 nM,12.1 nM,1.21 nM,−86.584%,1.61 nM,1.17 nM,−81.149%,,
C/C(=C\c1cc(F)c2nn(CC3CC3)nc2c1)[C@H]1OC(=O)C[C@H](O)CC[C@H](C)[C@@H](OC(=O)N2CCN(C)CC2)/C=C/[C@@H]1C [Compound 138],> 25000 nM,57.5 nM,8.7 nM,−85.916%,120 nM,70.3 nM,−80.330%,,
C/C(=C\c1cc(F)c2c(c1)nnn2CC1CC1)[C@H]1OC(=O)C[C@H](O)CC[C@H](C)[C@@H](OC(=O)N2CCN(C)CC2)/C=C/[C@@H]1C [Compound 139],> 25000 nM,93.2 nM,4.32 nM,−21.195%,240 nM,142 nM,−61.022%,,
C/C(=C\c1cc(F)c2nnn(C3CCOCC3)c2c1)[C@H]1OC(=O)C[C@H](O)CC[C@H](C)[C@@H](OC(=O)N2CCN(C)CC2)/C=C/[C@@H]1C [Compound 140],11.6 nM,11.8 nM,1.73 nM,−80.398%,1.63 nM,1.25 nM,−82.434%,,
C/C(=C\c1cc(F)c2nn(C3CCOCC3)nc2c1)[C@H]1OC(=O)C[C@H](O)CC[C@H](C)[C@@H](OC(=O)N2CCN(C)CC2)/C=C/[C@@H]1C [Compound 141],> 25000 nM,61.3 nM,13 nM,−94.865%,72.4 nM,48.8 nM,−63.745%,,
C/C(=C\c1cc(F)cc(N2CCN(C(=O)C3CCOC3)CC2)c1)[C@H]1OC(=O)C[C@H](O)CC[C@H](C)[C@@H](OC(=O)N2CCN(C)CC2)/C=C/[C@@H]1C (stereo partly shown) [Compound 143],19.2 nM,17.2 nM,3.2 nM,−87.719%,,,−84.803%,3.67 nM,1.75 nM
CC(=O)N1CCC(n2nnc3c(F)cc(/C=C(\C)[C@H]4OC(=O)C[C@H](O)CC[C@H](C)[C@@H](OC(=O)N5CCN(C)CC5)/C=C/[C@@H]4C)cc32)CC1 [Compound 160],4.68 nM,4.69 nM,1.65 nM,−82.399%,1.15 nM,0.896 nM,−86.403%,,
C/C(=C\c1cc(F)cc(N(C)C2CCOCC2)c1)[C@H]1OC(=O)C[C@H](O)CC[C@H](C)[C@@H](OC(=O)N2CCN(C)CC2)/C=C/[C@@H]1C [Compound 168],27.6 nM,16.5 nM,3.05 nM,−86.930%,10.4 nM,5.96 nM,−75.760%,,
C/C(=C\c1cc(F)cc(N(C)C2COC2)c1)[C@H]1OC(=O)C[C@H](O)CC[C@H](C)[C@@H](OC(=O)N2CCN(C)CC2)/C=C/[C@@H]1C [Compound 169],96.6 nM,19.8 nM,1.43 nM,−90.232%,8.9 nM,8.26 nM,−66.086%,,
C/C(=C\c1cccc(N(C)C2CCOCC2)c1)[C@H]1OC(=O)C[C@H](O)CC[C@H](C)[C@@H](OC(=O)N2CCN(C)CC2)/C=C/[C@@H]1C [Compound 170],11000 nM,31 nM,4.93 nM,−96.570%,23.2 nM,25.9 nM,−56.895%,,
C/C(=C\c1cccc(N(C)C2COC2)c1)[C@H]1OC(=O)C[C@H](O)CC[C@H](C)[C@@H](OC(=O)N2CCN(C)CC2)/C=C/[C@@H]1C [Compound 171],18800 nM,42.6 nM,1.51 nM,−92.998%,,,−50.083%,23.6 nM,19.6 nM
C/C(=C\c1cc(F)cc(N(C)C2CCS(=O)(=O)CC2)c1)[C@H]1OC(=O)C[C@H](O)CC[C@H](C)[C@@H](OC(=O)N2CCN(C)CC2)/C=C/[C@@H]1C [Compound 172],22.6 nM,15.4 nM,5.58 nM,−88.455%,17.9 nM,8.72 nM,−74.177%,,
C/C(=C\c1cc(F)cc(N(C)C2CCN(S(C)(=O)=O)CC2)c1)[C@H]1OC(=O)C[C@H](O)CC[C@H](C)[C@@H](OC(=O)N2CCN(C)CC2)/C=C/[C@@H]1C [Compound 174],13.1 nM,10.7 nM,3.14 nM,−80.529%,6.04 nM,3.86 nM,−92.525%,,

# Source: patent publication US11679107B2 (Eisai R&D Management Co., Ltd., priority 2018, dated 2023)
